Experiments:
[1] = system: barnyardgrass (Ec); assay: Test Example 1: herbicidal effects by paddy field soil treatment; type: in vivo; conditions: 100 g of the active ingredient per 10 ares, 21st day after the application, index 0-5 of Table 47;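 also: grade of growth control; 5 = at least 90%; 4 = 70 to 90%; 3 = 50 to 70%; 2 = 30 to 50%; 1 = 10 to 30%; 0 = under 10%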
In short: (§1)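 Scoring of herbicidal effect came 21 days after application of 100 g active ingredient per 10 ares to flooded (3 cm) paddy-soil pots sown with barnyardgrass, monochoria and bulrush, kept in a greenhouse.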

[2] = system: bulrush (Sc); assay: as above; type: in vivo; conditions: 100 g of the active ingredient per 10 ares, 21st day after the application, index 0-5 of Table 47;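 also: grade of growth control; 5 = at least 90%; 4 = 70 to 90%; 3 = 50 to 70%; 2 = 30 to 50%; 1 = 10 to 30%; 0 = under 10%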
In short: as §1

[3] = system: monochoria (Mo); assay: as above; type: in vivo; conditions: 100 g of the active ingredient per 10 ares, 21st day after the application, index 0-5 of Table 47;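 also: grade of growth control; 5 = at least 90%; 4 = 70 to 90%; 3 = 50 to 70%; 2 = 30 to 50%; 1 = 10 to 30%; 0 = under 10%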
In short: as §1

[4] = system: Digitaria ciliaris (Di); assay: Test Example 2: herbicidal effects by upland field soil treatment; type: in vivo; conditions: 100 g of the active ingredient per 10 ares;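 also: grade of growth control; 5 = at least 90%; 4 = 70 to 90%; 3 = 50 to 70%; 2 = 30 to 50%; 1 = 10 to 30%; 0 = under 10%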
Source text: (§2) (Test on Herbicidal Effects by Upland Field Soil Treatment)

[5] = system: barnyardgrass (Ec); assay: as above; type: in vivo; conditions: 100 g of the active ingredient per 10 ares
Source text: as §2

[6] = system: common lambsquarters (Ch); assay: as above; type: in vivo; conditions: 100 g of the active ingredient per 10 ares
Source text: as §2

[7] = system: pale smartweed (Po); assay: as above; type: in vivo; conditions: 100 g of the active ingredient per 10 ares
Source text: as §2

[8] = system: rice flatsedge (Ci); assay: as above; type: in vivo; conditions: 100 g of the active ingredient per 10 ares
Source text: as §2

[9] = system: slender amaranth (Am); assay: as above; type: in vivo; conditions: 100 g of the active ingredient per 10 ares
Source text: as §2

[10] = system: Diaitaria ciliaris (Di); assay: Test Example 3: herbicidal effects by upland field foliage treatment; type: in vivo; set-up: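 grade of growth control; 5 = at least 90%; 4 = 70 to 90%; 3 = 50 to 70%; 2 = 30 to 50%; 1 = 10 to 30%; 0 = under 10%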
In short: (§3)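 Test plants had been raised from seed for 2 weeks in a greenhouse, in soil-covered sand pots of 120 cm^2, and were returned there after spraying.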

[11] = system: barnyardgrass (Ec); assay: as above; type: in vivo; set-up: scale not given here
In short: as §3

[12] = system: common lambsquarters (Ch); assay: as above; type: in vivo; set-up: scale not given here
In short: as §3

[13] = system: pale smartweed (Po); assay: as above; type: in vivo; set-up: scale not given here
In short: as §3

[14] = system: rice flatsedge (Ci); assay: as above; type: in vivo; set-up: scale not given here
In short: as §3

[15] = system: slender amaranth (Am); assay: as above; type: in vivo; set-up: scale not given here
In short: as §3

[16] = system: cotton (Go); assay: Test Example 4: crop plant selectivity by upland field soil treatment (cotton), phytotoxicity; type: in vivo; set-up: scale not given here; conditions: evaluated 21st day after application
In short: (§4)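 Cotton is sown alongside weeds in pots of sand, covered with soil, and the soil surface is treated. After greenhouse growth, herbicidal activity and phytotoxicity are graded on the 21st day.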

[17] = system: Diaitaria ciliaris (Di); assay: Test Example 4: crop plant selectivity by upland field soil treatment (cotton), herbicidal effects; type: in vivo; conditions: evaluated 21st day after application
Experimental: (Test on Crop Plant Selectivity by Upland Field Soil Treatment)
In a plastic pot (surface area: 600 cm^2) filled with sand, cotton (Go), Diaitaria ciliaris (Di), green foxtail (Se), pale smartweed (Po), slender amaranth (Am), common lambsquarters (Ch) and China jute (Ab) were sown and covered with soil. […] The plants were then cultured in a green house, and the evaluation of the herbicidal effects and phytotoxicity was conducted on the 21st day after the application in accordance with the standards as identified in Table 47. Symbol—represents “not tested”.

[18] = system: China jute (Ab); assay: as above; type: in vivo; set-up: scale not given here; conditions: evaluated 21st day after application
In short: as §4

[19] = system: common lambsquarters (Ch); assay: as above; type: in vivo; set-up: scale not given here; conditions: evaluated 21st day after application
In short: as §4

[20] = system: green foxtail (Se); assay: as above; type: in vivo; set-up: scale not given here; conditions: dose 6.3 g ai/10 a, evaluated 21st day after application
In short: as §4

[21] = system: pale smartweed (Po); assay: as above; type: in vivo; set-up: scale not given here; conditions: evaluated 21st day after application
In short: as §4

[22] = system: slender amaranth (Am); assay: as above; type: in vivo; set-up: scale not given here; conditions: evaluated 21st day after application
In short: as §4

[23] = system: wheat (Tr); assay: Test Example 5: crop plant selectivity by upland field soil treatment (wheat), phytotoxicity; type: in vivo; set-up: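 grade of crop injury; 5 = at least 90%; 4 = 70 to 90%; 3 = 50 to 70%; 2 = 30 to 50%; 1 = 10 to 30%; 0 = under 10%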; conditions: dose 6.3 g ai/10a, 21st day after application
In short: (§5)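 Scores are visual ratings of herbicidal effect or wheat phytotoxicity, recorded on the 21st day after soil treatment of pots sown with wheat and weeds and kept in a greenhouse.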

[24] = system: China jute (Ab); assay: Test Example 5: crop plant selectivity by upland field soil treatment (wheat), herbicidal effects; type: in vivo; set-up: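 grade of growth control; 5 = at least 90%; 4 = 70 to 90%; 3 = 50 to 70%; 2 = 30 to 50%; 1 = 10 to 30%; 0 = under 10%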; conditions: dose 6.3 g ai/10a, 21st day after application
In short: as §5

[25] = system: common lambsquarters (Ch); assay: as above; type: in vivo; set-up: scale not given here; conditions: dose 6.3 g ai/10a, 21st day after application
In short: as §5

[26] = system: green foxtail (Se); assay: as above; type: in vivo; set-up: scale not given here; conditions: dose 6.3 g ai/10a, 21st day after application
In short: as §5

[27] = system: pale smartweed (Po); assay: as above; type: in vivo; set-up: scale not given here; conditions: dose 6.3 g ai/10a, 21st day after application
In short: as §5

[28] = system: slender amaranth (Am); assay: as above; type: in vivo; set-up: scale not given here; conditions: dose 6.3 g ai/10a, 21st day after application
In short: as §5

[29] = system: soybean (Gl); assay: Test Example 6: crop plant selectivity by upland field soil treatment (soybean), phytotoxicity; type: in vivo; set-up: scale not given here; conditions: dose 6.3 g ai/10a, 21st day after application
In short: (§6)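 Soybean and weed seeds were sown in sand-filled pots and covered with soil, then given a pre-emergence soil application. Plants were grown on in a greenhouse, and herbicidal effect and crop phytotoxicity were scored against a set rating scale 21 days after application.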

[30] = system: China jute (Ab); assay: Test Example 6: crop plant selectivity by upland field soil treatment (soybean), herbicidal effects; type: in vivo; set-up: scale not given here; conditions: dose 6.3 g ai/10a, 21st day after application
In short: as §6

[31] = system: common lambsquarters (Ch); assay: as above; type: in vivo; set-up: scale not given here; conditions: dose 6.3 g ai/10a, 21st day after application
In short: as §6

[32] = system: green foxtail (Se); assay: as above; type: in vivo; set-up: scale not given here; conditions: dose 6.3 g ai/10a, 21st day after application
In short: as §6

[33] = system: pale smartweed (Po); assay: as above; type: in vivo; set-up: scale not given here; conditions: dose 6.3 g ai/10a, 21st day after application
In short: as §6

[34] = system: slender amaranth (Am); assay: as above; type: in vivo; set-up: scale not given here; conditions: dose 6.3 g ai/10a, 21st day after application
In short: as §6

[35] = system: corn (Ze); assay: Test Example 7: crop plant selectivity by upland field soil treatment (corn), phytotoxicity; type: in vivo; set-up: scale not given here; conditions: dose 6.3 g ai/10a, 21st day after application
In short: (§7)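 Values are ratings of herbicidal effect and phytotoxicity on a standard scale, taken 21 days after application. Test species were sown together with corn in sand-filled pots, covered with soil, and grown in a greenhouse.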

[36] = system: China jute (Ab); assay: Test Example 7: crop plant selectivity by upland field soil treatment (corn), herbicidal effects; type: in vivo; set-up: scale not given here; conditions: dose 6.3 g ai/10a, 21st day after application
In short: as §7

[37] = system: common lambsquarters (Ch); assay: as above; type: in vivo; set-up: scale not given here; conditions: dose 6.3 g ai/10a, 21st day after application
In short: as §7

[38] = system: green foxtail (Se); assay: as above; type: in vivo; set-up: scale not given here; conditions: dose 6.3 g ai/10a, 21st day after application
In short: as §7

[39] = system: pale smartweed (Po); assay: as above; type: in vivo; set-up: scale not given here; conditions: dose 6.3 g ai/10a, 21st day after application
In short: as §7

[40] = system: slender amaranth (Am); assay: as above; type: in vivo; set-up: scale not given here; conditions: dose 6.3 g ai/10a, 21st day after application
In short: as §7

[41] = 21st day after the application, index 0-5 of Table 47
[42] = 100 g of the active ingredient per 10 ares, evaluated on the 14th day after treatment
[43] = evaluated on the 21st day after application
[44] = 100 g active ingredient per 10 ares, evaluated 14th day after treatment

CC(C)Oc1cc(-c2ccc(C(F)(F)F)n(C)c2=O)c(F)cc1Cl [Compound No. 1-14]
Herbicidal effects Ec [1]: 5
Herbicidal effects Sc [2]: 5
Herbicidal effects Mo [3]: 5
Herbicidal effects Di [4, 41]: 5
Herbicidal effects Ec [5, 41]: 5
Herbicidal effects Ch [6, 41]: 5
Herbicidal effects Po [7, 41]: 5
Herbicidal effects Ci [8, 41]: 5
Herbicidal effects Am [9, 41]: 5
Herbicidal effects Di [10, 42]: 5
Herbicidal effects Ec [11, 42]: 5
Herbicidal effects Ch [12, 42]: 5
Herbicidal effects Po [13, 42]: 5
Herbicidal effects Ci [14, 42]: 5
Herbicidal effects Am [15, 42]: 5
Phytotoxicity Go ([16]; dose 1.6 g ai/10 a): 0
Phytotoxicity Go ([16]; dose 6.3 g ai/10 a): 0
Herbicidal effects Di ([17]; dose 1.6 g ai/10 a): 5
Herbicidal effects Di ([17]; dose 6.3 g ai/10 a): 5
Herbicidal effects Ab ([18]; dose 1.6 g ai/10 a): 4
Herbicidal effects Ab ([18]; dose 6.3 g ai/10 a): 5
Herbicidal effects Ch ([19]; dose 1.6 g ai/10 a): 5
Herbicidal effects Ch ([19]; dose 6.3 g ai/10 a): 5
Herbicidal effects Se [20]: 5
Herbicidal effects Po ([21]; dose 1.6 g ai/10 a): 5
Herbicidal effects Po ([21]; dose 6.3 g ai/10 a): 5
Herbicidal effects Am ([22]; dose 1.6 g ai/10 a): 5
Herbicidal effects Am ([22]; dose 6.3 g ai/10 a): 5

Cn1c(C(F)(F)F)ccc(-c2c(F)cc(Cl)c3oc(CBr)cc23)c1=O [Compound No. 4-7, 3-(2-bromomethyl-7-chloro-5-fluorobenzofuran-4-yl)-1-methyl-6-trifluoromethyl-2-(1H)-pyridone]
Herbicidal effects Ec [1]: 5
Herbicidal effects Sc [2]: 5
Herbicidal effects Mo [3]: 5
Herbicidal effects Di [4, 43]: 5
Herbicidal effects Ec [5, 43]: 5
Herbicidal effects Ch [6, 43]: 5
Herbicidal effects Po [7, 43]: 5
Herbicidal effects Ci [8, 43]: 5
Herbicidal effects Am [9, 43]: 5
Herbicidal effects Di [10, 44]: 5
Herbicidal effects Ec [11, 44]: 5
Herbicidal effects Ch [12, 44]: 5
Herbicidal effects Po [13, 44]: 5
Herbicidal effects Ci [14, 44]: 5
Herbicidal effects Am [15, 44]: 5
Phytotoxicity Go ([16]; dose 6.3 g ai/10 a): 1
Herbicidal effects Ab ([18]; dose 6.3 g ai/10 a): 5
Herbicidal effects Ch ([19]; dose 6.3 g ai/10 a): 5
Herbicidal effects Se [20]: 5
Herbicidal effects Po ([21]; dose 6.3 g ai/10 a): 5
Herbicidal effects Am ([22]; dose 6.3 g ai/10 a): 5
Phytotoxicity Tr [23]: 1
Herbicidal effects Ab [24]: 5
Herbicidal effects Ch [25]: 5
Herbicidal effects Se [26]: 5
Herbicidal effects Po [27]: 5
Herbicidal effects Am [28]: 5
Phytotoxicity Gl [29]: 1
Herbicidal effects Ab [30]: 5
Herbicidal effects Ch [31]: 5
Herbicidal effects Se [32]: 5
Herbicidal effects Po [33]: 5
Herbicidal effects Am [34]: 5
Phytotoxicity Ze [35]: 2
Herbicidal effects Ab [36]: 5
Herbicidal effects Ch [37]: 5
Herbicidal effects Se [38]: 5
Herbicidal effects Po [39]: 5
Herbicidal effects Am [40]: 5
melting point: 142 to 144 °C

CNS(=O)(=O)c1cc(-c2ccc(C(F)(F)F)n(C)c2=O)c(F)cc1Cl [Compound No. 1-71, 3-(4-chloro-2-fluoro-5-methylsulfamoylphenyl)-1-methyl-6-trifluoromethyl-2(1H)-pyridone]
Herbicidal effects Ec [1]: 5
Herbicidal effects Sc [2]: 5
Herbicidal effects Mo [3]: 5
Herbicidal effects Di [4, 41]: 5
Herbicidal effects Ec [5, 41]: 5
Herbicidal effects Ch [6, 41]: 5
Herbicidal effects Po [7, 41]: 5
Herbicidal effects Ci [8, 41]: 5
Herbicidal effects Am [9, 41]: 5
Herbicidal effects Di [10, 42]: 5
Herbicidal effects Ec [11, 42]: 5
Herbicidal effects Ch [12, 42]: 5
Herbicidal effects Po [13, 42]: 5
Herbicidal effects Ci [14, 42]: 5
Herbicidal effects Am [15, 42]: 5
Phytotoxicity Go ([16]; dose 6.3 g ai/10 a): 1
Herbicidal effects Ab ([18]; dose 6.3 g ai/10 a): 5
Herbicidal effects Ch ([19]; dose 6.3 g ai/10 a): 5
Herbicidal effects Se [20]: 5
Herbicidal effects Po ([21]; dose 6.3 g ai/10 a): 5
Herbicidal effects Am ([22]; dose 6.3 g ai/10 a): 5
Phytotoxicity Tr [23]: 2
Herbicidal effects Ab [24]: 5
Herbicidal effects Ch [25]: 5
Herbicidal effects Se [26]: 5
Herbicidal effects Po [27]: 5
Herbicidal effects Am [28]: 5
melting point: 150 to 151 °C

From patent US6472348B1, “Pyridone derivatives and herbicides” (Kumiai Chemical Industry Co., Ltd., priority 1996, dated 2002)
